Results reported in patent US20230061319A1, “METHODS OF TREATING TUMORS” (CoImmune, Inc., priority 2020, published 2023).

Tests used:
MART-1 specific CTLs [1] = test: Priming of MART-1 specific CTLs by PME-CD40L DCs in the presence of mTOR inhibitors; type: cell-based, human; details: in the presence of the mTOR inhibitor, 10 ng/ml to 1 ug/ml
Protocol: 300 x 10^6 peripheral blood mononuclear cells (PBMCs) were cultured in 30 mL AIM-V media (Thermo Fisher Scientific) in T150 flasks (Corning) for 2 hours to provide for the adherence of monocytes. Non-adherent cells were removed by washing the monolayers twice with cold phosphate buffered saline (PBS) (Cambrex), and the remaining monocytes were cultured in X-VIVO 15 medium (Cambrex) for 5 days, supplemented with 1000 U/mL each of granulocyte macrophage-colony stimulating factor (GM-CSF) (Bayer AG, Leukine® liquid) and IL-4 (R&D Systems). To achieve DC maturation, immature DCs were first cultured on day 5 with 10 ng/mL tumor necrosis factor alpha (TNF-α) (R&D Systems), 1000 µ/mL interferon gamma (IFN-y) (Actimmune), and 1 µg/mL prostaglandin E2 (PGE2) (Sigma). On day 6, phenotypically mature DCs were co-electroporated with RNA encoding CD40L (Argos Lot No. 101606 JSC) at a concentration of 3 ug per million DCs plus either human cytomegalovirus (CMV) pp65 or MART-1 encoding RNAs at 2 µg per million DCs (CMVpp65 RNA-Argos Lot No 071107XF, MART-1-APL RNA-Argos Lot No. 011909HC). […]
PME-CD40L DCs derived from HLA-A2-positive donors and transfected with antigen-encoding mRNAs were co-cultured with purified CD8^+ T cells. […] Induction of primary immune responses to MART-1 and memory/recall responses to CMV pp65 were measured on day 10. […]

MART-1 specific CTLs [2] = test: MART-1 specific CTL effector function (IFN-γ, TNF-α, IL-2 secretion, CD107a expression); type: cell-based, human; details: at the higher concentrations tested; compared to untreated CTLs
Protocol: (§1) PME-CD40L DCs derived from HLA-A2-positive donors and transfected with antigen-encoding mRNAs were co-cultured with purified CD8^+ T cells. All co-cultures were performed in R-10 media. CD8^+ T cells were purified using the CD8+ T Cell Negative Selection Kit II (Miltenyi Biotec) from non-adherent cells harvested from the monocyte adherence step. The CD8^+ cells were mixed with DCs at a 10:1 ratio and incubated in the presence of 0.2 µg/mL IL-2 and 10 ng/mL IL-7 (R&D Systems). DC/T cell co-cultures were re-stimulated on day 7 and supplemented with 20 units/mL IL-2 plus 10 ng/mL IL-7. Induction of primary immune responses to MART-1 and memory/recall responses to CMV pp65 were measured on day 10.
To identify antigen-specific T cell responses and the phenotype of the antigen specific cells, T cells were harvested on day 10 post-stimulation and incubated with peptide-pulsed T2 target cells at a ratio of 10:1 for 4 hour with Brefeldin A, Monensin (BD Biosciences) and CD107a PE-Cy5. […] After 4 hours of co-culture, responder T cells were stained for 10 minutes with the requisite peptide/pentamer reagent, then washed once and re-stained with CD8-Eflour605, CD45RA-FITC, and CD28-APC. Cells were then washed in PBS and stained with Aquadye (BD Biosciences) for analysis of viability. Labeled cells were then fixed and permeabilized in Fixation/Permeabilization solution (eBiosciences). […]

CMV pp65 specific CTLs [3] = test: Induction of CMV pp65 specific recall CTLs by PME-CD40L DCs in the presence of mTOR inhibitors; type: cell-based, human
Protocol: 300 x 10^6 peripheral blood mononuclear cells (PBMCs) were cultured in 30 mL AIM-V media (Thermo Fisher Scientific) in T150 flasks (Corning) for 2 hours to provide for the adherence of monocytes. Non-adherent cells were removed by washing the monolayers twice with cold phosphate buffered saline (PBS) (Cambrex), and the remaining monocytes were cultured in X-VIVO 15 medium (Cambrex) for 5 days, supplemented with 1000 U/mL each of granulocyte macrophage-colony stimulating factor (GM-CSF) (Bayer AG, Leukine® liquid) and IL-4 (R&D Systems). To achieve DC maturation, immature DCs were first cultured on day 5 with 10 ng/mL tumor necrosis factor alpha (TNF-α) (R&D Systems), 1000 µ/mL interferon gamma (IFN-y) (Actimmune), and 1 µg/mL prostaglandin E2 (PGE2) (Sigma). On day 6, phenotypically mature DCs were co-electroporated with RNA encoding CD40L (Argos Lot No. 101606 JSC) at a concentration of 3 ug per million DCs plus either human cytomegalovirus (CMV) pp65 or MART-1 encoding RNAs at 2 µg per million DCs (CMVpp65 RNA-Argos Lot No 071107XF, MART-1-APL RNA-Argos Lot No. 011909HC). Generation of MART-1 RNA and CD40L RNA is described in e.g., DeBenedette et al., J. Immunol. 181(8):5296-5305 (2008).
Electroporated DCs were cultured for an additional 4 hours in X-VIVO 15 media supplemented with 800 µ/mL GM-CSF and 500 µ/mL IL-4 at 1 x 10^6 DCs/mL in low adherence 6-well plates (Costar). After 4 hr, the DCs were harvested by washing with cold PBS and prepared as a frozen formulation at 10 x 10^6 DCs/mL in 20% DMSO and 80% FBS, representing antigen electroporated Post Maturation Electroporated (PME)-CD40L DC preparations.
as §1
(§2) To identify antigen-specific T cell responses and the phenotype of the antigen specific cells, T cells were harvested on day 10 post-stimulation and incubated with peptide-pulsed T2 target cells at a ratio of 10:1 for 4 hour with Brefeldin A, Monensin (BD Biosciences) and CD107a PE-Cy5. […] After 4 hours of co-culture, responder T cells were stained for 10 minutes with the requisite peptide/pentamer reagent, then washed once and re-stained with CD8-Eflour605, CD45RA-FITC, and CD28-APC. Cells were then washed in PBS and stained with Aquadye (BD Biosciences) for analysis of viability. Labeled cells were then fixed and permeabilized in Fixation/Permeabilization solution (eBiosciences). Cells where then stained with IFN-γ-PECy7, TNFa-AF700 and IL-2-PerCPcy5.5 in permeabilization buffer and resuspended in FACs buffer prior to acquisition.
CD8^+ cytotoxic T lymphocyte (CTL) responses were used to measure the pp65 CMV recall response induced by PME-CD40L DCs in the presence of mTOR inhibitors everolimus and temsirolimus. PME-CD40L DCs encoding CMV pp65 were used to stimulate recall CTL responses in the presence of the mTOR inhibitors under evaluation for compatibility with the CMN-001 product. The expansion of recall CTLs specific for CMV pp65 was determined on day 3 after a second weekly stimulation with PME-CD40L DCs.

CMV pp65 specific CTLs [4] = test: CMV pp65 specific recall CTL effector function (IFN-γ, TNF-α, IL-2 secretion, CD107a expression); type: cell-based, human
Protocol: as §1, §2
To assess the impact mTOR inhibition would have on CTL effector function in vitro, CMV pp65 specific CTLs were assayed for the ability to secret the cytokines IFN-y, TNF-α and IL-2, and express the degranulation marker CD107a, which serves as a surrogate marker to measure lytic activity. Data presented in FIG. 2A and FIG. 2B measures the absolute numbers of CMV […] specific CTLs that secrete IFN-y, TNF-α or IL-2, or express CD107a in response to CMV pp65 peptide pulsed target cells. The absolute numbers of CMV^+ CTLs shown have been corrected for background non-specific responses to display only the antigen specific response for each parameter.

human tumor cell lines [5] = details: broad range of human tumor cell lines; cited from earlier work
human tumor cell lines [6] = details: xenografts of human tumor cell lines; cited from earlier work
[7] = 10 ng/ml, compared to DC/CTL co-cultures without mTOR inhibitor, day 3 after second weekly stimulation

Row | SMILES | priming of MART-1 specific CTLs by PME-CD40L DC (MART-1 specific CTLs [1]) | numbers of MART-1+ CTL secreting a cytokine or expressing CD107a (MART-1 specific CTLs [2]) | numbers of CMV pp65 specific CTLs (CMV pp65 specific CTLs [3]; [7]) | percentage of CMV pp65 specific CTLs (CMV pp65 specific CTLs [3]; [7]) | increase in absolute numbers of CMV+ CTL (CMV pp65 specific CTLs [3]; 1 µg/ml) | increase in percentage of CMV+ CTL (CMV pp65 specific CTLs [3]; 1 µg/ml) | numbers of CMV+ CTL secreting a cytokine or expressing CD107a (CMV pp65 specific CTLs [4]; 10 ng/ml, compared to untreated CTLs) | increase in effector function of CMV+ CTL (CMV pp65 specific CTLs [4]; 1 µg/ml) | antiproliferative activity in vitro (human tumor cell lines [5]) | antiproliferative activity in murine tumor xenograft models (human tumor cell lines [6])
1 | CO[C@H]1C[C@@H]2CC[C@@H](C)[C@@](O)(O2)C(=O)C(=O)N2CCCC[C@H]2C(=O)O[C@H]([C@H](C)C[C@@H]2CC[C@@H](OC(=O)C(C)(CO)CO)[C@H](OC)C2)CC(=O)[C@H](C)/C=C(\C)[C@@H](O)[C@@H](OC)C(=O)[C@H](C)C[C@H](C)/C=C/C=C/C=C/1C [temsirolimus] | able to prime | increased | increase | increase | evident | evident | increased | maintained |  | 
2 | CO[C@H]1C[C@@H]2CC[C@@H](C)[C@@](O)(O2)C(=O)C(=O)N2CCCC[C@H]2C(=O)O[C@H]([C@H](C)C[C@@H]2CC[C@@H](OP(C)(C)=O)[C@H](OC)C2)CC(=O)[C@H](C)/C=C(\C)[C@@H](O)[C@@H](OC)C(=O)[C@H](C)C[C@H](C)/C=C/C=C/C=C/1C [Ridaforolimus, ridaforolimus] |  |  |  |  |  |  |  |  | antiproliferative activity | antiproliferative activity
